We go through three molecules from patent publication US10100052B2, “Compounds for the treatment of hepatitis B virus infection” (Gilead Sciences, Inc., priority 2016, dated 2018).

Series [1] can be described thus: Pharmacokinetic analysis following intravenous administration to rats. The class given is in vivo. Particulars: male, Sprague-Dawley, rat, intravenous infusion over 30 min, 1 mg/kg; for clearance / Vd: plasma; for Vd: read-out: Vss; for half-life: terminal plasma half-life. Here is the method: Pharmacokinetic analysis was performed on various test compounds following intravenous or oral administration to male Sprague-Dawley rats.
For pharmacokinetic analysis of intravenously administered compounds, the test compounds were formulated in 5% NMP, 30% PG, 45% PEG 300 and 20% water at 0.5 mg/mL for IV infusion. For pharmacokinetic analysis following oral administration, compounds were formulated in the same vehicle and concentration.
Each dosing group consisted of 3 male, naïve Sprague-Dawley rats. At dosing, animals weighed approximately 0.28 kg. The animals were fasted overnight prior to dose administration and up to 4 hr after dosing. For studies of intravenous administration, the test article was administered to the animals by intravenous infusion over 30 min. The rate of infusion was adjusted according to the body weight of each animal to deliver a dose of 1 mg/kg. For studies of oral administration, the test article was administered according to the body weight of each animal to deliver a dose of 5 mg/kg.
For pharmacokinetic analysis of intravenously administered compounds, serial venous blood samples (approximately 0.3 mL each) were taken from each animal at 0, 0.250, 0.483, 0.583, 0.750, 1.50, 3.00, 6.00, 8.00, 12.0, and 24.0 hours after dosing. The blood samples were collected into Vacutainer™ tubes containing EDTA-K2 as the anti-coagulant and were immediately placed on wet ice pending centrifugation for plasma. An LC/MS/MS method was used to measure the concentration of the test compound in plasma. An aliquot of 100 μL of each plasma sample was added to a clean 96 well plate, and 400 μL of cold acetonitrile/internal standard solution (ACN)/(ISTD) was added. After protein precipitation, an aliquot of 100 μL of the supernatant was transferred to a clean 96-well plate and diluted with 175 μL of water. An aliquot of 10 μL of the above solution was injected into an ABSciex API-4000 LC/MS/MS system utilizing a HyPurity C18 HPLC column (30×2.1 mm, 3 m; Thermo-Hypersil Part #22103-032130). An Agilent 1200 series binary pump (P/N G1312A Bin Pump) was used for elution and separation, and an HTS Pal autosampler (LEAP Technologies, Carrboro, N.C.) was used for sample injection. A TSQ Quantum Ultra triple quadrupole mass spectrometer was utilized in selective reaction monitoring mode (Applied Biosystems, Foster City, Calif.). Liquid chromatography was performed using two mobile phases: mobile phase A contained 0.1% formic acid and 1% isopropanol in water; and mobile phase B contained 0.1% formic acid and 1% isopropanol in acetonitrile. Non-compartmental pharmacokinetic analysis was performed on the plasma concentration-time data.
The resulting data are shown in the first three columns of Table 4. In Table 4, CL refers to clearance, which characterizes the rate at which drug is removed from plasma. The lower the clearance of a drug is, the longer the elimination half-life is in the body. Vss refers to the steady state volume of distribution and indicates how well a drug is distributed into the tissues. The larger the Vss is, the longer the elimination half-life is in the body. T1/2 refers to the terminal plasma half-life of the compound.

Series [2] has as its system HBsAg. Kind of series: PHH assay for inhibition of HBsAg. The class given is cell-based, genotype D (AD38-derived) HBV in primary human hepatocytes. The conditions noted are these: Hepatitis B virus, 288 h, read-out: HBsAg EC50. Here is the method:
Primary human hepatocytes (PHH) (Bioreclamation IVT) were plated on collagen-coated flasks using Plating Media (Life Technologies) containing William's Medium E supplemented with 1% penicillin/streptomycin, 4 μg/mL human recombinant insulin, 2 mM GlutaMAX, 15 mM HEPES, 1 μM dexamethasone, 5% fetal bovine serum, and 0.2% Torpedo Antibiotic Mix (Bioreclamation IVT). After a 4-hour incubation at 37° C., cells were switched to Maintenance Media (Life Technologies) containing William's Medium E supplemented with 0.5% penicillin/streptomycin, 6.25 µg/mL human recombinant insulin, 6.25 μg/mL human transferrin, 6.25 ng/mL selenous acid, 1.25 mg/mL bovine serum albumin, 5.35 μg/mL linoleic acid, 2 mM GlutaMAX, 15 mM HEPES, 0.1 μM dexamethasone, 2% fetal bovine serum, 2% DMSO, and 0.2% Torpedo Antibiotic Mix (Bioreclamation IVT). On the next day, PHH were infected with 500 genome equivalent per cell of genotype D (AD38-derived) HBV in Maintenance Media supplemented with 4% PEG 8000 (Promega). After 24 hour incubation, cells were washed three times with William's Medium E and fed with fresh Maintenance Media. At 3 days after infection, infected PHH cells were seeded on 96-well plates pre-coated with collagen at a density of 65000 cells per well containing serially diluted solutions of certain compounds disclosed herein or DMSO (1% final concentration) in a final volume of 125 μl of Maintenance Media (Life Technologies) containing William's Medium E supplemented with 0.5% penicillin/streptomycin, 6.25 μg/mL human recombinant insulin, 6.25 μg/mL human transferrin, 6.25 ng/mL selenous acid, 1.25 mg/mL bovine serum albumin, 5.35 μg/mL linoleic acid, 2 mM GlutaMAX, 15 mM HEPES, 0.1 μM dexamethasone, 5% fetal bovine serum, 1 mM 1-amininobenzotriaole, and 0.2% Torpedo Antibiotic Mix (Bioreclamation IVT). Media with compounds was replenished every 2-3 days. After an incubation time of 12 days, secreted HBsAg in the supernatant were measured using a multiplex chemiluminescent (Mesoscale discovery, MSD) assay using capture and detection antibody pairs specific for HBsAg. Comparative Example 1 and Comparative Example 2 have the following structures and were prepared according to International Publication No. WO 2015/113990.

Usually clearance stands for the volume of plasma or blood freed of the substance per unit of time. As usually defined, the half-life is how long it takes for the measured level to halve. A lower half-life goes with rapid decline. One may read the EC50 as the concentration at which the effect is half-maximal.

On to `COCCCOc1cc2c(cc1Cl)-c1cc(=O)c(C(=O)O)cn1[C@H](C1(C)CC1)C2` [Comparative Example 1], for which, in series [1], the clearance is 5.67 mL/min/kg, the Vd is 0.57 L/kg and the half-life is 1.62 h. Also, the EC50 in series [2] was 1.8 nM.

Turning to `COCCCOc1cc2c(cc1Cl)-c1cc(=O)c(C(=O)O)cn1N(C(C)(C)C)C2` [Example 2, 6-(tert-Butyl)-10-chloro-9-(3-methoxypropoxy)-2-oxo-6,7-dihydro-2H-pyrido[2,1-a]-phthalazine-3-carboxylic acid], in series [1], the clearance is 2.97 mL/min/kg, the Vd came to 0.623 L/kg and the half-life is 3.34 h. Further, in series [2], the EC50 came out at 3 nM.

As to `COCCCOc1cc2c(cc1Cl)-c1cc(=O)c(C(=O)O)cn1[C@H](C(C)(C)C)C2` [Comparative Example 2], in series [1], the clearance is 5.05 mL/min/kg, the Vd came to 0.661 L/kg and the half-life is 1.99 h. In series [2], the EC50 was found to be 0.5 nM.
